The text below walks through data of article PMC4161155 (Journal of Medicinal Chemistry, 2014).

Assay [1] has as its target T1, rNTS2 receptor (Rattus norvegicus, UniProt Q63384).
T1 sequence (Q63384 1-416): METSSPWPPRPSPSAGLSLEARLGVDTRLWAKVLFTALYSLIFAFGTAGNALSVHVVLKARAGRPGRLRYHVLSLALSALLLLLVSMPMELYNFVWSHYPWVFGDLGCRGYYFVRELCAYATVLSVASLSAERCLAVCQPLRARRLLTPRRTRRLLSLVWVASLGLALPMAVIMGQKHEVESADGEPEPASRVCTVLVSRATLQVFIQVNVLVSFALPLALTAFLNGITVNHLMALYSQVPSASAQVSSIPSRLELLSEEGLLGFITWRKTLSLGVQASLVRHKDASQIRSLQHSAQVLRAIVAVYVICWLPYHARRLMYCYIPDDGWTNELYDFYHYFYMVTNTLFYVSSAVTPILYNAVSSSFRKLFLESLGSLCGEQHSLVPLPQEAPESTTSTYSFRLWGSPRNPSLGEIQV
Put plainly: NTS2 FLIPR calcium mobilization assay, agonist mode. It counts as cell-based. Conditions: for agonist behaviour in the NTS2 FLIPR assay (calcium release): CHO cell line stably expressing rNTS2, FLIPR Tetra, pilot study. A general note: A change in cytosolic calcium serves as a functional read-out for many receptors and channels.

Assay [2] deals with T1, rNTS2 receptor. Briefly: Competitive binding assay versus [125I]NT at NTS2. Conditions: ratio of Ki values, versus compound 13.
Assay [3] addresses T1, rNTS2 receptor. Briefly: NTS2 FLIPR calcium mobilization assay, antagonist mode. The assay is classed as cell-based. As to conditions: for type of antagonism of 3b in the Ke experiment at NTS2: Ke assays against dose-response curves of control agonist 3b.
The target of another assay is NTS1 (Rattus norvegicus, UniProt P20789). Put plainly: NTS1 FLIPR assay. It counts as cell-based. As to conditions: data not shown.
Chain of NTS1 (P20789 whole entry): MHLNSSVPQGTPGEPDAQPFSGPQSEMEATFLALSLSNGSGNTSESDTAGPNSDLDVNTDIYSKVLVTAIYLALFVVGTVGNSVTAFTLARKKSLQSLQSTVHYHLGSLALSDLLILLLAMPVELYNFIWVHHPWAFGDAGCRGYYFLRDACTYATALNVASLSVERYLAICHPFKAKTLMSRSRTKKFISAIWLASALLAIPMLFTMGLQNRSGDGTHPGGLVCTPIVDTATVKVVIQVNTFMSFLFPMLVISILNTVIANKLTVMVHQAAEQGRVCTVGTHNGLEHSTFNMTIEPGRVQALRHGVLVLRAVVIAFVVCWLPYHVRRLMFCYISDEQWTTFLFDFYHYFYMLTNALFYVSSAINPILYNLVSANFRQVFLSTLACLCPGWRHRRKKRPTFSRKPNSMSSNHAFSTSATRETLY

Turning to `COc1cccc(OC)c1-c1cc(C(=O)NC2(C(=O)O)C3CC4CC(C3)CC2C4)nn1-c1ccnc2cc(Cl)ccc12` (stereo not shown) [3a], on rNTS2 receptor [1], the “agonist behaviour in the NTS2 FLIPR assay (calcium release)” value is reported as “full agonists”.
The same measure, in the same setting: under `COc1cccc(OC)c1-c1cc(C(=O)NC2(C(=O)O)C3CC4CC(C3)CC2C4)nn1-c1ccc(C(=O)N(C)CCCN(C)C)cc1C(C)C` (stereo not shown) [3b] stands “full agonists”.
Broadly, the Emax is the maximal effect, on the per cent scale that the assay sets. As to `C[C@@H]1CN([C@H]2CC[C@](C#N)(c3ccc(F)cc3)CC2)CC[C@]1(C(=O)O)c1ccccc1` [Levocabastine, levocabastine], the “agonist behaviour in the NTS2 FLIPR assay (calcium release)” value at rNTS2 receptor [1] is “potent partial agonist activity”. For the same molecule, at rNTS2 receptor [1] (read-out: FLIPR assay NTS2 Emax), the Emax is 14 to 16%.
With `Cc1ccc(S(=O)(=O)Nc2ccc3c(c2)c(C(=O)C(F)(F)F)cn3CC(=O)N[C@@H](CC(C)C)C(=O)O)cc1` [compound 5, N-{[5-{[(4-Methylphenyl)sulfonyl]amino}-3-(trifluoroacetyl)-1H-indol-1-yl]acetyl}-L-leucine], the “fold boost to NTS2 binding affinity versus 13” value at rNTS2 receptor [2] stood at 7.5 fold. The “type of antagonism of 3b in the Ke experiment at NTS2” value on rNTS2 receptor [3] was “insurmountable antagonist activity”. The “fold more active than 13 in the NTS2 FLIPR assay (antagonist activity)” value at rNTS2 receptor [3] (ratio of IC50 values, versus compound 13) was found to be 90 fold. Moreover, the “fold more active than NT in the NTS2 FLIPR assay” value on rNTS2 receptor [3] (ratio of IC50 values, versus endogenous ligand NT) is listed as approximately 3 fold. Besides, the “activity in the NTS1 FLIPR assay” value on NTS1 is given as “Neither of the test compounds (5 or 13) showed activity”.
As to `Cc1ccc(S(=O)(=O)Nc2ccc3c(ccn3CC(=O)N[C@@H](CC(C)C)C(=O)O)c2)cc1` [compound 13, N-[(5-{[(4-Methylphenyl)sulfonyl]amino}-1H-indol-1-yl)acetyl]-L-leucine], the “NTS2 agonist activity in library screen” value on rNTS2 receptor [1] (single concentration 10 μM) is listed as “devoid of NTS2 agonist activity”. Further, the “type of antagonism of 3b in the Ke experiment at NTS2” value at rNTS2 receptor [3] is on record as “insurmountable”. The “activity in the NTS1 FLIPR assay” value at NTS1 is given as “Neither of the test compounds (5 or 13) showed activity”. The “activity at NTS1 in library screen” value on NTS1 (single concentration 10 μM) is “no activity at NTS1”.
